In article PMC6536313 (Bioorganic & medicinal chemistry, 2019):

Columns and labels:
σ2 receptor (σ2R) = σ2 receptor (σ2R) (Homo sapiens, UniProt Q5BJF2); experiment: Sigma-2 receptor radioligand binding; conditions: for σ2R pKi ± SEM: Mean ± SEM
σ1 receptor (σ1R) = σ1 receptor (σ1R) (Homo sapiens, UniProt Q99720); experiment: Sigma-1 receptor radioligand binding
[1] = on removal of both chloro and fluoro substituents (ether analogs 13-15)

σ1 receptor (σ1R), sequence (Q99720 whole entry, species assumed): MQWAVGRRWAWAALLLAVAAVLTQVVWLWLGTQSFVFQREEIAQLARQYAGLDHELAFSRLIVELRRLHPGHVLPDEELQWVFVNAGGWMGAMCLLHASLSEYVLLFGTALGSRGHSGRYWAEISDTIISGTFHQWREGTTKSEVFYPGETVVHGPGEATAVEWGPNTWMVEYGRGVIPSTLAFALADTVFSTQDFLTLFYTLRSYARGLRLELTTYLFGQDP
σ2 receptor (σ2R), sequence (Q5BJF2 whole entry, species assumed): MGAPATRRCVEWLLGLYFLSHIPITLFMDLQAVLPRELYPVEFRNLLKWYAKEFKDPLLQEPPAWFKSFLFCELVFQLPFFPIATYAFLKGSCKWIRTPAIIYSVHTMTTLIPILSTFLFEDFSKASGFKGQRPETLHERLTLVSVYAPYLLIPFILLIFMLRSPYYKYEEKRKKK

SMILES: O=C(CCCN1CCCN(c2ccccn2)CC1)c1ccc(F)cc1 [Compound 3, 1-(4-fluorophenyl)-4-(4-(pyridin-2-yl)-1,4-diazepan-1-yl)butan-1-one]
- σ2R pKi ± SEM (σ2 receptor (σ2R)): 7.49 ± 0.09

SMILES: Fc1ccc(CCCCN2CCCN(c3ccc(Cl)cc3)CC2)cc1 [Compound 5]
- σ2R pKi ± SEM (σ2 receptor (σ2R)): 8.07 ± 0.06

SMILES: Fc1ccc(SCCCN2CCCN(c3ccc(Cl)cn3)CC2)cc1 [Compound 7, 1-(5-chloropyridin-2-yl)-4-(3-((4-fluorophenyl)thio)propyl)-1,4-diazepane]
- σ2R pKi ± SEM (σ2 receptor (σ2R)): 8.65 ± 0.05

SMILES: Fc1ccc(CCCCN2CCN(c3ccc(Cl)cn3)CC2)cc1 [Compound 10, 1-(5-chloropyridin-2-yl)-4-(4-(4-fluorophenyl)butyl)piperazine]
- σ2R pKi ± SEM (σ2 receptor (σ2R)): 7.37 ± 0.05

SMILES: [O-][S+](CCCN1CCN(c2ccc(Cl)cc2)CC1)c1ccc(F)cc1 (centres unmarked) [Compound 12]
- fold reduction/loss of binding affinity at σ1 receptor (σ1 receptor (σ1R); relative to compound 8): greater than 45 fold
- fold reduction/loss of binding affinity at σ2 receptor (σ2 receptor (σ2R); relative to compound 8): > 71 fold

SMILES: Clc1ccc(N2CCN(CCCOc3ccccc3)CC2)cc1 [Compound 13]
- σ2R pKi ± SEM (σ2 receptor (σ2R)): 7.48 ± 0.09

SMILES: c1ccc(OCCCN2CCN(c3ccccc3)CC2)cc1 [Compound 15]
- fold decrease in binding affinity at σ1 receptor (σ1 receptor (σ1R); [1]): 2–5 fold
- fold decrease in binding affinity at σ2 receptor (σ2 receptor (σ2R); [1]): 2–5 fold

SMILES: OC1(c2ccc(Cl)cc2)CC2CCC(C1)N2CCCCc1ccc(F)cc1 (centres unmarked) [Compound 17]
- fold lower affinity for σ1 receptor (σ1 receptor (σ1R); relative to compound 5): 6 fold
- fold lower affinity for σ2 receptor (σ2 receptor (σ2R); relative to compound 5): 3 fold
